For 28 compounds, IC50 results are on record in patent US20080207617A1, “Quinoline Derivatives and Quinazoline Derivatives Inhibiting Autophosphrylation of Flt3 and Medicinal Compositions Containing the Same” (KIRIN BEER KABUSHIKI KAISHA, priority 2002, published 2008).

In assay [1] the test system is MV4-11. Nature of the assay: Cell growth inhibitory test MV4-11 (WST-1). The conditions noted are these: Homo sapiens, MV4-11, 72 h, MV4-11 cells, 3 days culture. The format is cell-based, human. As for the experimental part:
Pharmacological Test Example 2
Cell Growth Inhibitory Test
MV4-11 (ATCC number: CRL-9591) as human leukemia cells was seeded in an amount of 3×10^3 using a DMEM medium containing 10% fetal calf serum (purchased from GIBCO) in a 96-well flat bottom plate.
(§1) A solution of a test compound in dimethyl sulfoxide was added to each well and was cultured in a 5% carbon dioxide incubator for 3 days. Three days after the initiation of the culture, 10 μl of a WST-1 solution in Cell Counting Kit (purchased from Wako Pure Chemical Industries, Ltd.) was added to each well for a color reaction. After proper color development, the absorbance was measured with a microplate reader under conditions of measurement wavelength 450 nm and reference wavelength 650 nm. The growth ratio for each well was determined by presuming the absorbance without the addition of the medicament to be 100% growth ratio and the absorbance of the well without seeding of the cells to be 0% growth ratio. The concentration of the test compound was varied on several levels, the cell growth ratio for each case was determined, and the concentration of the test compound necessary for inhibiting 50% of cell growth ratio (IC50) was calculated.

Assay [2] relates to MOLM13. Nature of the assay: Cell growth inhibitory activities on cultured human leukemia cells MOLM-13 (WST-1). The format is cell-based. The conditions noted are these: Homo sapiens, MOLM-13, 72 h, 3 days culture. As for the experimental part:
Pharmacological Test Example 4
Cell Growth Inhibitory Activities on Cultured Human Leukemia Cells
as §1, with “Human leukemia cells MOLM13 (subdivided from Hayashibara Biochemical Laboratories, Inc.) were seeded in an amount of 3×10^3 using a DMEM medium containing 10% fetal calf serum (purchased from GIBCO) in a 96-well flat bottom plate. A solution” for “A solution”
For orientation: Tetrazolium assays rely on reduction of a dye to a coloured formazan, in cell work by metabolically active cells.

Where a name gives a salt, the structure may show the parent alone. A value given as a limit tells only on which side of the number the result lay.

Regarding `COc1cc2c(Oc3ccc(NC(=O)NCCC(C)(C)C)c(Cl)c3)ccnc2cc1OCCC1CCCCN1` (stereo not shown) [Compound 50, 1-{2-Chloro-4-[6-methoxy-7-(2-piperidin-2-yl-ethoxy)-quinolin-4-yloxy]-phenyl}-3-(3,3-dimethyl-butyl)-urea], the results for the IC50 in assay [1] and in assay [2] were 224 nM and 243 nM, respectively.
Turning to `COc1cc2nccc(Oc3ccc(NC(=O)NCCC(C)(C)C)c(Cl)c3)c2cc1OC` [Compound 11, 1-[2-Chloro-4-(6,7-dimethoxy-quinolin-4-yloxy)-phenyl]-3-(3,3-dimethyl-butyl)-urea hydrochloride], the values for the IC50 in assay [1] and in assay [2] were 300 nM and 416 nM, respectively.
The matching figures for `COc1cc2nccc(Oc3ccc(NC(=O)NCCC(C)(C)C)c(F)c3)c2cc1OC` [Compound 9, 1-[4-(6,7-Dimethoxy-quinolin-4-yloxy)-2-fluoro-phenyl]-3-(3,3-dimethyl-butyl)-urea hydrochloride]: 8 nM and 24 nM.
As to `COc1cc2nccc(Oc3ccc(NC(=O)NCCC4CCCCC4)cc3)c2cc1OC` [Compound 31, 1-(2-Cyclohexyl-ethyl)-3-[4-(6,7-dimethoxy-quinolin-4-yloxy)-phenyl]-urea], the 50% inhibitory concentration (IC50) in assay [1] and in assay [2] was 2 nM throughout.
`CCNC(=O)Nc1ccc(Oc2ccnc3cc(OC)c(OC)cc23)cc1` [Compound 28, 1-[4-(6,7-Dimethoxy-quinolin-4-yloxy)-phenyl]-3-ethyl-urea]: the 50% inhibitory concentration (IC50) (as a rule, the point on the concentration scale where inhibition reaches its midpoint) in assay [1] came out at 19 nM; in assay [2], 26 nM.
For `COc1cc2nccc(Oc3ccc(NC(=O)NCCCC(C)(C)C)cc3)c2cc1OC` [Compound 35, 1-[4-(6,7-Dimethoxy-quinolin-4-yloxy)-phenyl]-3-(4,4-dimethyl-pentyl)-urea], the figures for the IC50 in assay [1] and in assay [2] were below 1 nM and 3 nM, respectively.
`COc1cc2c(Oc3ccc(NC(=O)NCCC(C)(C)C)c(Cl)c3)ccnc2cc1OCCN1CCC(C)CC1` [Compound 51, 1-(2-Chloro-4-{6-methoxy-7-[2-(4-methyl-piperidin-1-yl)-ethoxy]-quinolin-4-yloxy}-phenyl)-3-(3,3-dimethyl-butyl)-urea]: the results for the IC50 in assay [1] and in assay [2] were 211 nM and 216 nM, respectively.
`COc1cc2nccc(Oc3ccc(NC(=O)NCCCC(C)C)cc3)c2cc1OC` [Compound 34, 1-[4-(6,7-Dimethoxy-quinolin-4-yloxy)-phenyl]-3-(4-methyl-pentyl)-urea]: the half-inhibitory concentration (IC50) is below 1 nM in assay [1] and 2 nM in assay [2].
For `CCCCNC(=O)Nc1ccc(Oc2ccnc3cc(OC)c(OC)cc23)cc1` [Compound 19, 1-Butyl 3-[4-(6,7-dimethoxy-quinolin-4-yloxy)-phenyl]-urea] the same measures were 6 nM and 10 nM.
As to `COc1cc2nccc(Oc3ccc(NC(=O)NCCC(C)(C)C)c(C)c3C)c2cc1OC` [Compound 7, 1-[4-(6,7-Dimethoxy-quinolin-4-yloxy)-2,3-dimethyl-phenyl]-3-(3,3-dimethyl-butyl)-urea], the IC50 in assay [1] is 558 nM; in assay [2], 593 nM.
Take `COc1cc2c(Oc3ccc(NC(=O)NCCC(C)(C)C)c(Cl)c3)ccnc2cc1OCCN1CCCCC1` [Compound 42, 1-{2-Chloro-4-[6-methoxy-7-(2-piperidin-1-yl-ethoxy)-quinolin-4-yloxy]-phenyl}-3-(3,3-dimethyl-butyl)-urea]: the values for the concentration for half-maximal inhibition (IC50) in assay [1] and in assay [2] were 235 nM and 273 nM, respectively.
As to `COc1cc2c(Oc3ccc(NC(=O)NCCC4CCCC4)cc3F)ccnc2cc1OCCN1CCCCC1` [Compound 59, 1-(2-Cyclopentyl-ethyl)-3-{3-fluoro-4-[6-methoxy-7-(2-piperidin-1-yl-ethoxy)-quinolin-4-yloxy]-phenyl}-urea], the results for the half-inhibitory concentration (IC50) in assay [1] and in assay [2] were 2 nM and 4 nM, respectively.
In the case of `COc1cc2nccc(Oc3ccc(NC(=O)NCCC(C)(C)C)c([N+](=O)[O-])c3)c2cc1OC` [Compound 37, 1-[2-Nitro-4-(6,7-dimethoxy-quinolin-4-yloxy)-phenyl]-3-(3,3-dimethyl-butyl)-urea], the half-maximal inhibitory concentration (IC50) worked out at 47 nM in assay [1] and 38 nM in assay [2].
Consider `COc1cc2nccc(Oc3ccc(NC(=O)NCC(C)(C)C)cc3)c2cc1OC` [Compound 32, 1-[4-(6,7-Dimethoxy-quinolin-4-yloxy)-phenyl]-3-(2,2-dimethyl-propyl)-urea], for which the IC50 in assay [1] is 201 nM; in assay [2], 314 nM.
The matching figures for `COc1cc2nccc(Oc3ccc(NC(=O)NC(C)C)cc3)c2cc1OC` [Compound 20, 1-[4-(6,7-Dimethoxy-quinolin-4-yloxy)-phenyl]-3-isopropyl-urea]: 31 nM and 39 nM.
As to `CCCCCCNC(=O)Nc1ccc(Oc2ccnc3cc(OC)c(OC)cc23)cc1` [Compound 22, 1-[4-(6,7-Dimethoxy-quinolin-4-yloxy)-phenyl]-3-hexyl-urea], the 50% inhibitory concentration (IC50) is 4 nM in assay [1] and 7 nM in assay [2].
As for `COc1cc(Oc2ccnc3cc(OC)c(OC)cc23)ccc1NC(=O)NCCC(C)(C)C` [Compound 4, 1-[4-(6,7-Dimethoxy-quinolin-4-yloxy)-2-methoxy-phenyl]-3-(3,3-dimethyl-butyl)-urea], the IC50 in assay [1] came out at 889 nM; in assay [2], 653 nM.
As for `COc1cc2c(Oc3ccc(NC(=O)NCCC(C)(C)C)c(Cl)c3)ccnc2cc1OCCCN1CCC(C)CC1` [Compound 52, 1-(2-Chloro-4-{6-methoxy-7-[3-(4-methyl-piperidin-1-yl)-propoxy]-quinolin-4-yloxy}-phenyl)-3-(3,3-dimethyl-butyl)-urea], the IC50 in assay [1] stood at 184 nM; in assay [2] it was 188 nM.
With `COc1cc2c(Oc3ccc(NC(=O)NCCC(C)(C)C)c(Cl)c3)ccnc2cc1OCCC1CCNCC1` [Compound 49, 1-{2-Chloro-4-[6-methoxy-7-(2-piperidin-4-yl-ethoxy)-quinolin-4-yloxy]-phenyl}-3-(3,3-dimethyl-butyl)-urea], the values for the half-maximal inhibitory concentration (IC50) in assay [1] and in assay [2] were 207 nM and 224 nM, respectively.
For `COc1cc2nccc(Oc3ccc(NC(=O)NCCC(C)(C)CO)cc3)c2cc1OC` [Compound 39, 1-[4-(6,7-Dimethoxy-quinolin-4-yloxy)-phenyl]-3-(4-hydroxy-3,3-dimethyl-butyl)-urea], the half-inhibitory concentration (IC50) in assay [1] was below 1 nM; in assay [2] it was 3 nM.
Take `COc1cc2c(Oc3ccc(NC(=O)NCCC4CCCCCC4)c(F)c3)ccnc2cc1OCCN1CC(C)OC(C)C1` (stereo not shown) [Compound 71, 1-(2-Cycloheptyl-ethyl)-3-(4-{7-[2-(2,6-dimethyl-morpholin-4-yl)-ethoxy]-6-methoxy-quinolin-4-yloxy}-2-fluoro-phenyl)-urea]: the IC50 in assay [1] was found to be 15 nM; in assay [2] it was 27 nM.
As for `COc1cc2ncnc(Oc3ccc(NC(=O)NCCC(C)(C)C)cc3)c2cc1OC` [Compound 36, 1-[4-(6,7-Dimethoxy-quinazolin-4-yloxy)-phenyl]-3-(3,3-dimethyl-butyl)-urea], the IC50 in assay [1] is below 1 nM; in assay [2] it was 2 nM.
As to `COc1cc2nccc(Oc3ccc(NC(=O)NCC4CCCCC4)cc3)c2cc1OC` [Compound 30, 1-Cyclohexylmethyl-3-[4-(6,7-dimethoxy-quinolin-4-yloxy)-phenyl]-urea], the results for the half-maximal inhibitory concentration (IC50) in assay [1] and in assay [2] were 4 nM and 8 nM, respectively.
As for `CCCCCNC(=O)Nc1ccc(Oc2ccnc3cc(OC)c(OC)cc23)cc1` [Compound 23, 1-[4-(6,7-Dimethoxy-quinolin-4-yloxy)-phenyl]-3-pentyl-urea], the values for the half-maximal inhibitory concentration (IC50) in assay [1] and in assay [2] were 2 nM and 4 nM, respectively.
The matching figures for `COc1cc2c(Oc3ccc(NC(=O)NCCC(C)(C)C)c(Cl)c3)ccnc2cc1OCCN1CCCCCC1` [Compound 74, 1-{4-[7-(2-Azepan-1-yl-ethoxy)-6-methoxy-quinolin-4-yloxy]-2-chloro-phenyl}-3-(3,3-dimethyl-butyl)-urea]: 255 nM and 244 nM.
Consider `COc1cc2nccc(Oc3ccc(NC(=O)NCCCC4CCCCC4)cc3)c2cc1OC` [Compound 33, 1-(3-Cyclohexyl-propyl)-3-[4-(6,7-dimethoxy-quinolin-4-yloxy)-phenyl]-urea], for which the concentration for half-maximal inhibition (IC50) in assay [1] came to 8 nM; in assay [2], 4 nM.
For `COCCCNC(=O)Nc1ccc(Oc2ccnc3cc(OC)c(OC)cc23)cc1` [Compound 24, 1-[4-(6,7-Dimethoxy-quinolin-4-yloxy)-phenyl]-3-(3-methoxy-propyl)-urea] the same measures were 18 nM and 24 nM.
Regarding `COc1cc2c(Oc3ccc(NC(=O)NCCC(C)(C)C)c(Cl)c3)ccnc2cc1OCCN1CCCC1` [Compound 48, 1-{2-Chloro-4-[6-methoxy-7-(2-pyrrolidin-1-yl-ethoxy)-quinolin-4-yloxy]-phenyl}-3-(3,3-dimethyl-butyl)-urea], the IC50 in assay [1] worked out at 217 nM.
